Assay [1] deals with KG-1 (Acute Myeloid Leukemia), FGFR1OP2-FGFR1 fusion. Kind of assay: Cancer cell viability assay (Cell Titer-Glo), KG-1. In kind it is cell-based. The settings on record: Homo sapiens, KG-1 cells, 72 hours. An excerpt:
RT112/84, UM-UC-14, SNU-16 and KG-1 Cancer Cell Line Cell Viability Assays
To detect the change of intracellular ATP by Cell Titer-Glo@ and to evaluate the inhibitory effect of the compounds on cancer cell lines by determining the in vitro IC50 value of the compounds.
Cell Titer-Glo@ 2.0 Luminescent cell viability assay reagent was purchased from Promega (Madison, WI). RT112/84, SNU-16, and KG-1 cell lines were purchased from American Type Culture Collection (Manassas, VA). UM-UC-14 cell line was purchased from Sigma (St. Louis, MO). RT112/84, UM-UC-14, SNU-16, and KG-1 cells were cultured in RPMI1640 media supplemented with 10% fetal bovine serum. Cultures were maintained at 37° C. in a humidified atmosphere of 5% CO2 and 95% air.
Cell Viability Assay Procedure: Cells were plated in 96-well clear bottom/white plates (Corning #3903) at 10,000 cells/well in 100 μl of media, incubated overnight. The next day, test compound DMSO stock solutions were made at 10 mM and 2 μM final concentration. Compounds were then added to cells in a 9-dose, […] dilution series starting at 30 μM with an HP 300e Digital Dispenser (each dose was applied in triplicate). DMSO was backfilled to each well up to 301 nL total volume of test compound+DMSO, and a total of 301 nL DMSO was added to a control/no test compound well in triplicate. The cells in cell culture plates were incubated with the compounds at 37° C. and 5% CO2 for 72 hours. Then 50 μl of Cell Titer Glo 2.0 reagent was added to each well of the cell culture plates. The contents were covered from light and mixed on an orbital shaker at room temperature for 10 min. Luminescence was recorded by a Synergy H1 Microplate Reader (Biotek, Winooski, VT). Cells were assessed as a percentage of DMSO only treated control cells. Curves were plotted and IC50 values were calculated using the GraphPad Prism 8 program based on a sigmoidal dose-response equation (4 parameter).

The next assay deals with T1, FGFR2 (Homo sapiens, UniProt P21802).
T1 construct: made in house; host or cells: E. coli derived from BL21, infected with T7 phage
Kind of assay: Kinase binding assay (kinase-tagged T7 phage, affinity beads, qPCR readout), FGFR2. The settings on record: FGFR binding data. The essentials: (§1)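 First, streptavidin beads were loaded with biotinylated ligand and blocked. Kinase, beads and compound were then shaken together for 1 hour at room temperature in SeaBlock/PBS/Tween/DTT buffer. Finally, eluted kinase was measured by qPCR and Kd fitted with Hill slope −1.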
A general note: In qPCR the cycle at which signal appears reflects the starting amount.

Assay [2] deals with RT112/84 (Bladder Cancer), FGFR3-TACC3 fusion. Kind of assay: Cancer cell viability assay (Cell Titer-Glo), RT112/84. In kind it is cell-based. The settings on record: Homo sapiens, RT112/84 cells, 72 hours. The essentials: (§2)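 Cells seeded at 10,000/well in RPMI1640 with 10% FBS, then exposed 72 h at 37° C. to a 9-point 10-fold dilution series from 30 μM, in triplicate. Viability read as ATP luminescence (CellTiter-Glo 2.0) as percent of DMSO control; IC50 from 4-parameter sigmoidal fit.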
Background: ATP-based viability assays read luminescence as a measure of living cells.

The subject of assay [3] is UM-UC-14 (Bladder Cancer), FGFR3(S249C). Kind of assay: Cancer cell viability assay (Cell Titer-Glo), UM-UC-14. The class given is cell-based. The following applies: UMUC14, UM-UC-14 cells, 72 hours. The method, boiled down:
as §2

A further assay addresses T2, FGFR1 (Homo sapiens, UniProt P11362).
T2 construct: made in house; host or cells: E. coli derived from BL21, infected with T7 phage
Kind of assay: Kinase binding assay (kinase-tagged T7 phage, affinity beads, qPCR readout), FGFR1. The settings on record: FGFR binding data. The method, boiled down: as §1

In the next assay the target is T3, FGFR3 (V555M) (Homo sapiens, UniProt P22607, V555M).
T3 construct: made in house; host or cells: E. coli derived from BL21, infected with T7 phage
Kind of assay: Kinase binding assay (kinase-tagged T7 phage, affinity beads, qPCR readout), FGFR3 (V555M). The settings on record: FGFR binding data. The method, boiled down: as §1

A further assay addresses T4, FGFR3 (Homo sapiens, UniProt P22607).
T4 construct: made in house; host or cells: E. coli derived from BL21, infected with T7 phage
Kind of assay: Kinase binding assay (kinase-tagged T7 phage, affinity beads, qPCR readout), FGFR3. The settings on record: FGFR binding data. The essentials: as §1

Assay [4] deals with SNU-16 (Gastric Carcinoma), FGFR2 amplification. Kind of assay: Cancer cell viability assay (Cell Titer-Glo), SNU-16. In kind it is cell-based. The settings on record: Homo sapiens, SNU-16 cells, 72 hours, read-out: SNU16 FGFR2 (IC50 nM). The method, boiled down: as §2

As usually defined, the IC50 is the concentration needed to halve the response being measured. The Kd is the free concentration of one partner at which half of the binding sites on the other are occupied at equilibrium, for simple one-to-one binding. A lower Kd goes with a tighter complex.

T3 sequence (P22607 23-806 V555M): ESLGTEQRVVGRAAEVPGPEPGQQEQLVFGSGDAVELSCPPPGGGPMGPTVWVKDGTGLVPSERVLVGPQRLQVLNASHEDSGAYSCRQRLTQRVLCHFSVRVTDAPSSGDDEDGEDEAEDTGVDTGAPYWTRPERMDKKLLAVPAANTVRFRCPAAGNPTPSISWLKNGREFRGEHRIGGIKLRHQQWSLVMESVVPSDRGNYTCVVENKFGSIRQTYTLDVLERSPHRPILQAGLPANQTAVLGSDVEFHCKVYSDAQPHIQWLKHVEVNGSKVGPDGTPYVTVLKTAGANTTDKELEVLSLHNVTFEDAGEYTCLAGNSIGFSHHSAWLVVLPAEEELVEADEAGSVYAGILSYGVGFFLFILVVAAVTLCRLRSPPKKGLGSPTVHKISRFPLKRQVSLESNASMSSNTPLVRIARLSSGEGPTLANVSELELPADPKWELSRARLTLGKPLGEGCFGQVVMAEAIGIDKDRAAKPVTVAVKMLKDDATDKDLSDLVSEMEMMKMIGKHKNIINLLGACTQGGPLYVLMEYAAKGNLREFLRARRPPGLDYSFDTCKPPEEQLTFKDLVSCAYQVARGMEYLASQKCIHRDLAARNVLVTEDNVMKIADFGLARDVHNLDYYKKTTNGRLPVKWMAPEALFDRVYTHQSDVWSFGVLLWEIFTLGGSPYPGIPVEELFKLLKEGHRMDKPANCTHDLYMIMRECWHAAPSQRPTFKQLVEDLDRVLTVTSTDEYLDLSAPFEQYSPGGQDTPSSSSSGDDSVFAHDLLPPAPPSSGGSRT
T1 sequence (P21802 22-821): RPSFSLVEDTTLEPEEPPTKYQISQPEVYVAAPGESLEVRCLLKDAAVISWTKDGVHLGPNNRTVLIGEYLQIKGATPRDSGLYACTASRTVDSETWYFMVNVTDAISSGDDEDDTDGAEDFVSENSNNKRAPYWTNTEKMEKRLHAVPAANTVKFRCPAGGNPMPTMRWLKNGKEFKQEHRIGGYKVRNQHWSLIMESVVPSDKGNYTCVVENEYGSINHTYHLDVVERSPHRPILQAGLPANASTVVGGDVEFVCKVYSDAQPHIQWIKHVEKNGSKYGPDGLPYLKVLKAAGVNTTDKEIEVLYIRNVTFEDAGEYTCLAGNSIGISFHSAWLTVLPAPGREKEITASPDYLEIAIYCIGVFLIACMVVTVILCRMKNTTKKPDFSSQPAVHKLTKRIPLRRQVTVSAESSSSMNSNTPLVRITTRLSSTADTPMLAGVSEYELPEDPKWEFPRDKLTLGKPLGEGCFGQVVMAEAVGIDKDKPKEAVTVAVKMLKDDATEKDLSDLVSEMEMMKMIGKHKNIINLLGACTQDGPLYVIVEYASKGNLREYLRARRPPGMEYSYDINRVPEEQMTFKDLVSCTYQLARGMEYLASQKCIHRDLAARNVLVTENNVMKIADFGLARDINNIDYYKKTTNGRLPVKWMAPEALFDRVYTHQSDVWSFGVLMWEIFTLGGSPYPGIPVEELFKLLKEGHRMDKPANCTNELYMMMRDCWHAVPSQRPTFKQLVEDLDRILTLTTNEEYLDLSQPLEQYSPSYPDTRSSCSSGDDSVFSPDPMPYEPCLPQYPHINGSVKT
T4 sequence (P22607 23-806): as the sequence (P22607 23-806 V555M) above, with M533V counted along it
T2 sequence (P11362 22-822): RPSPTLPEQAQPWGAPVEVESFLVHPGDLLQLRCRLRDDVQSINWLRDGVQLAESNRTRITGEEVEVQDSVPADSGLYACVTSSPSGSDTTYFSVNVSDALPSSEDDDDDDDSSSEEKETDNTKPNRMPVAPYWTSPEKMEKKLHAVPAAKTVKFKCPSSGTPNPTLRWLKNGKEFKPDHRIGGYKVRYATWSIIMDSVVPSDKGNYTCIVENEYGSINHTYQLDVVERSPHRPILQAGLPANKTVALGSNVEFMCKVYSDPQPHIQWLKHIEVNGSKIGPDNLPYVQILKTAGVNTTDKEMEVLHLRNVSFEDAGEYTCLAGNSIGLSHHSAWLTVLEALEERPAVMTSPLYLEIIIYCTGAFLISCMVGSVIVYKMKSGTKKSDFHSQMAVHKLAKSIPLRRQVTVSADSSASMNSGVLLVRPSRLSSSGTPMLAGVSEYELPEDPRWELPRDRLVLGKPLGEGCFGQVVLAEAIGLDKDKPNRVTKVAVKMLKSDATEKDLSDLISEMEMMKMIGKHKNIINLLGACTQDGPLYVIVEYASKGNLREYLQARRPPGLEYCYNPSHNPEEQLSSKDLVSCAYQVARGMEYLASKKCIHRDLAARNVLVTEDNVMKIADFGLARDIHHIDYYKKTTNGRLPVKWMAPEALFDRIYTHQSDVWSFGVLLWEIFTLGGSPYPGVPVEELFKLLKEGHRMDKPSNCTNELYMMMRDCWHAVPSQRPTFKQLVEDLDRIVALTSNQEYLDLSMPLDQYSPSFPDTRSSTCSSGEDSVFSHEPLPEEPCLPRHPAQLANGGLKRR

Take `C=CC(=O)Nc1ccc2c(-c3nc(Nc4ccc(N5CCOCC5)cc4)ncc3Cl)cn(C)c2c1` [Example 27, N-[3-[5-chloro-2-(4-morpholinoanilino)pyrimidin-4-yl]-1-methyl-indol-6-yl]prop-2-enamide]: the IC50 in assay [1], in assay [2] and in assay [3] was 0.1 to 100 nM each time. For the same compound, the equilibrium dissociation constant (Kd) at FGFR2, at FGFR1, on FGFR3 (V555M) and on FGFR3 was 0.1 to 100 nM each time.

With `C=CC(=O)Nc1ccc2c(c1)c(C)cn2-c1nc(Nc2cn(C)cn2)ncc1Cl` [Example 28, N-[1-[5-chloro-2-[(1-methylimidazol-4-yl)amino]pyrimidin-4-yl]-3-methyl-indol-5-yl]prop-2-enamide], the concentration for half-maximal inhibition (IC50) was 0.1 to 100 nM in assay [1], > 1000 nM in assay [2] and 0.1 to 100 nM in assay [3]. The Kd on FGFR2, at FGFR1, at FGFR3 (V555M) and at FGFR3 was 0.1 to 100 nM in each case.

In the case of `C=CC(=O)Nc1ccc2c(-c3nc(Nc4cnn(C)c4)ncc3Cl)cn(C)c2c1` [Example 30, N-[3-[5-Chloro-2-[(1-methylpyrazol-4-yl)amino]pyrimidin-4-yl]-1-methyl-indol-6-yl]prop-2-enamide], the IC50 in assay [1], in assay [2] and in assay [3] was 0.1 to 100 nM in each case. Besides, the Kd on FGFR2, at FGFR1, on FGFR3 (V555M) and at FGFR3 was 0.1 to 100 nM each time.

For `C=CC(=O)Nc1ccc2c(c1)c(C)cn2-c1nc(Nc2cnn(C3CCN(C4COC4)CC3)c2)ncc1Cl` [Example 34, N-[1-[5-Chloro-2-[[1-[1-(oxetan-3-yl)-4-piperidyl]pyrazol-4-yl]amino]pyrimidin-4-yl]-3-methyl-indol-5-yl]prop-2-enamide], the IC50 in assay [1], in assay [2] and in assay [3] was 0.1 to 100 nM throughout. Further, the Kd on FGFR2, on FGFR1, at FGFR3 (V555M) and at FGFR3 was 0.1 to 100 nM each time.

Regarding `C=CC(=O)Nc1ccc2c(c1)c(C)cn2-c1nc(Nc2cn(C)nc2C)ncc1Cl` [Example 35, N-[1-[5-chloro-2-[(1,3-dimethylpyrazol-4-yl)amino]pyrimidin-4-yl]-3-methyl-indol-5-yl]prop-2-enamide], the IC50 in assay [1], in assay [2] and in assay [3] was 0.1 to 100 nM throughout. Moreover, the Kd on FGFR2, on FGFR1, at FGFR3 (V555M) and on FGFR3 was 0.1 to 100 nM each time.

In the case of `C=CC(=O)Nc1ccc2c(c1)c(C)cn2-c1nc(Nc2cnn(C)c2C)ncc1Cl` [Example 40, N-[1-[5-chloro-2-[(1,5-dimethylpyrazol-4-yl)amino]pyrimidin-4-yl]-3-methyl-indol-5-yl]prop-2-enamide], the IC50 in assay [1], in assay [2] and in assay [3] was 0.1 to 100 nM each time. In addition, the Kd at FGFR2, at FGFR1, on FGFR3 (V555M) and at FGFR3 was 0.1 to 100 nM throughout.

Consider `C=CC(=O)Nc1ccc2c(c1)c(C)cn2-c1nc(Nc2cnn(C3CCN(CC)CC3)c2)ncc1Cl` [Example 42, N-[1-[5-chloro-2-[[1-(1-ethyl-4-piperidyl)pyrazol-4-yl]amino]-pyrimidin-4-yl]-3-methyl-indol-5-yl]prop-2-enamide], for which the IC50 in assay [1], in assay [2] and in assay [3] was 0.1 to 100 nM in each case. Further, the Kd at FGFR2, on FGFR1, at FGFR3 (V555M) and at FGFR3 was 0.1 to 100 nM throughout.

Turning to `C=CC(=O)Nc1ccc2c(c1)c(C)cn2-c1nc(Nc2ccc(N3CCOCC3)cc2)ncc1C` [Example 44, N-[3-methyl-1-[5-methyl-2-(4-morpholinoanilino)pyrimidin-4-yl]indol-5-yl]prop-2-enamide], the IC50 in assay [1], in assay [2], in assay [3] and in assay [4] was 0.1 to 100 nM throughout. The dissociation constant Kd at FGFR2, on FGFR1, at FGFR3 (V555M) and on FGFR3 was 0.1 to 100 nM throughout.

Take `C=CC(=O)Nc1ccc2c(c1)c(C)cn2-c1nc(Nc2ccnn2C)ncc1C` [Example 49, N-[3-methyl-1-[5-methyl-2-[(2-methylpyrazol-3-yl)amino]-pyrimidin-4-yl]indol-5-yl]prop-2-enamide]: the IC50 in assay [1], in assay [2], in assay [3] and in assay [4] was 0.1 to 100 nM in each case. The Kd lay in the range of 0.1 to 100 nM on FGFR2, 100 to 250 nM on FGFR1, 0.1 to 100 nM on FGFR3 (V555M) and 0.1 to 100 nM at FGFR3.

`C=CC(=O)Nc1ccc2c(c1)c(C)cn2-c1nc(Nc2ccnn2C)ncc1Cl` [Example 55, N-[1-[5-chloro-2-[(2-methylpyrazol-3-yl)amino]pyrimidin-4-yl]-3-methyl-indol-5-yl]prop-2-enamide]: the IC50 in assay [1], in assay [2] and in assay [3] was 0.1 to 100 nM in each case. Further, the Kd on FGFR2, on FGFR1, at FGFR3 (V555M) and at FGFR3 was 0.1 to 100 nM throughout.

With `C=CC(=O)Nc1ccc2c(-c3nc(Nc4ccc(N5CCOCC5)cc4)ncc3F)cn(C)c2c1` [Example 57, N-[3-[5-Fluoro-2-(4-morpholinoanilino)pyrimidin-4-yl]-1-methyl-indol-6-yl]prop-2-enamide], the IC50 in assay [1], in assay [2] and in assay [3] was 0.1 to 100 nM in each case. The Kd on FGFR2, at FGFR1, on FGFR3 (V555M) and on FGFR3 was 0.1 to 100 nM in each case.

On to `C=CC(=O)Nc1ccc2c(c1)c(C)cn2-c1nc(Nc2ccc(N3CCOCC3)cc2)ncc1F` [Example 67, N-[1-[5-Fluoro-2-(4-morpholino-anilino)pyrimidin-4-yl]-3-methyl-indol-5-yl]prop-2-enamide], for which the IC50 in assay [1], in assay [2] and in assay [3] was 0.1 to 100 nM each time. Besides, the Kd at FGFR2, on FGFR1, at FGFR3 (V555M) and on FGFR3 was 0.1 to 100 nM each time.

Regarding `C=CC(=O)Nc1ccc2c(c1)c(C)cn2-c1nc(Nc2ccn(C)n2)ncc1C` [Example 81, N-[3-methyl-1-[5-methyl-2-[(1-methylpyrazol-3-yl)amino]pyrimidin-4-yl]indol-5-yl]prop-2-enamide], the IC50 in assay [1], in assay [2] and in assay [3] was 0.1 to 100 nM in each case. In addition, the Kd on FGFR2, at FGFR1, at FGFR3 (V555M) and on FGFR3 was 0.1 to 100 nM in each case.

As for `C=CC(=O)Nc1cnc2c(c1)c(C)cn2-c1nc(Nc2ccnn2C)ncc1C` [Example 85, N-[3-methyl-1-[5-methyl-2-[(2-methylpyrazol-3-yl)amino]pyrimidin-4-yl]pyrrolo[2,3-b]pyridin-5-yl]prop-2-enamide], the IC50 in assay [1], in assay [2] and in assay [3] was 0.1 to 100 nM in each case. Moreover, the Kd on FGFR2, on FGFR1, at FGFR3 (V555M) and on FGFR3 was 0.1 to 100 nM in each case.

These data come from US20240190849A1, “AMINOPYRIMIDINE COMPOUNDS AND METHODS OF THEIR USE” (TYRA BIOSCIENCES, INC., priority 2021, published 2024).
